Laboratory results reported in ChEMBL document CHEMBL1208728, “Design, synthesis, and structure-activity relationships of pyrazole derivatives as potential FabH inhibitors” (Bioorg Med Chem Lett, 2010).
Converted amounts (≈) assume the structure as drawn.

Tests used:
Format in all cases: functional
[1] = tested on: Pseudomonas aeruginosa; experiment: Antimicrobial activity against Pseudomonas aeruginosa ATCC 13525 by MTT assay
[2] = tested on: Staphylococcus aureus; experiment: Antimicrobial activity against Staphylococcus aureus ATCC 6538 by MTT assay
[3] = tested on: Escherichia coli; experiment: Antimicrobial activity against Escherichia coli ATCC 35218 by MTT assay
[4] = tested on: Enterobacter cloacae; experiment: Antimicrobial activity against Enterobacter cloacae ATCC 13047 by MTT assay
[5] = tested on: Enterococcus faecalis; experiment: Antimicrobial activity against Streptococcus faecalis ATCC 9790 by MTT assay
[6] = tested on: Bacillus subtilis; experiment: Antimicrobial activity against Bacillus subtilis ATCC 6633 by MTT assay

MIC [1] [µg/mL]	MIC [2] [µg/mL]	MIC [3] [µg/mL]	MIC [4] [µg/mL]	MIC [5] [µg/mL]	MIC [6] [µg/mL]	SMILES
12.5 (≈ 44.9 µM)	> 50	25 (≈ 89.8 µM)	25 (≈ 89.8 µM)	6.25 (≈ 22.5 µM)	> 50	CC(=O)N1N=C(c2ccccc2)CC1c1ccc(C)cc1 (stereo not given)
12.5 (≈ 37.5 µM)	25 (≈ 75 µM)	12.5 (≈ 37.5 µM)	12.5 (≈ 37.5 µM)	50 (≈ 150 µM)	6.25 (≈ 18.8 µM)	CC(=O)N1N=C(c2ccc(Cl)cc2)CC1c1ccccc1Cl (stereo not given)
6.25 (≈ 16.5 µM)	25 (≈ 66.2 µM)	12.5 (≈ 33.1 µM)	3.12 (≈ 8.27 µM)	50 (≈ 132 µM)	25 (≈ 66.2 µM)	CC(=O)N1N=C(c2ccc(Br)cc2)CC1c1ccccc1Cl (stereo not given)
6.25 (≈ 20.1 µM)	1.56 (≈ 5.03 µM)	25 (≈ 80.5 µM)	12.5 (≈ 40.3 µM)	12.5 (≈ 40.3 µM)	25 (≈ 80.5 µM)	CC(=O)N1N=C(c2ccc(C)c(C)c2)CC1c1ccc(F)cc1 (stereo not given)
12.5 (≈ 44.3 µM)	25 (≈ 88.6 µM)	25 (≈ 88.6 µM)	12.5 (≈ 44.3 µM)	50 (≈ 177 µM)	25 (≈ 88.6 µM)	CC(=O)N1N=C(c2ccccc2)CC1c1ccc(F)cc1 (stereo not given)
25 (≈ 68 µM)	25 (≈ 68 µM)	25 (≈ 68 µM)	> 50	6.25 (≈ 17 µM)	0.78 (≈ 2.12 µM)	CC(=O)N1N=C(c2ccc(Cl)c(Cl)c2)CC1c1ccc(Cl)cc1 (stereo not given)
25 (≈ 60.7 µM)	> 50	12.5 (≈ 30.3 µM)	12.5 (≈ 30.3 µM)	3.12 (≈ 7.58 µM)	1.56 (≈ 3.79 µM)	CC(=O)N1N=C(c2ccc(Cl)c(Cl)c2)CC1c1ccc(Br)cc1 (stereo not given)
12.5 (≈ 34.4 µM)	25 (≈ 68.8 µM)	> 50	25 (≈ 68.8 µM)	6.25 (≈ 17.2 µM)	3.12 (≈ 8.6 µM)	COc1ccc(C2CC(c3ccc(Cl)c(Cl)c3)=NN2C(C)=O)cc1 (stereo not given)
12.5 (≈ 42.8 µM)	25 (≈ 85.5 µM)	> 50	> 50	25 (≈ 85.5 µM)	> 50	CC(=O)N1N=C(c2ccc(C)c(C)c2)CC1c1ccccc1 (stereo not given)
12.5 (≈ 36.4 µM)	6.25 (≈ 18.2 µM)	12.5 (≈ 36.4 µM)	> 50	25 (≈ 72.8 µM)	50 (≈ 146 µM)	CC(=O)N1N=C(c2ccc(Br)cc2)CC1c1ccccc1 (stereo not given)
25 (≈ 83.7 µM)	> 50	> 50	25 (≈ 83.7 µM)	25 (≈ 83.7 µM)	25 (≈ 83.7 µM)	CC(=O)N1N=C(c2ccccc2)CC1c1ccccc1Cl (stereo not given)
6.25 (≈ 18.8 µM)	25 (≈ 75 µM)	12.5 (≈ 37.5 µM)	25 (≈ 75 µM)	6.25 (≈ 18.8 µM)	12.5 (≈ 37.5 µM)	CC(=O)N1N=C(c2ccc(Cl)cc2)CC1c1ccc(Cl)cc1 (stereo not given)
25 (≈ 72.8 µM)	> 50	12.5 (≈ 36.4 µM)	12.5 (≈ 36.4 µM)	12.5 (≈ 36.4 µM)	25 (≈ 72.8 µM)	CC(=O)N1N=C(c2ccccc2)CC1c1ccc(Br)cc1 (stereo not given)
12.5 (≈ 34 µM)	25 (≈ 68 µM)	12.5 (≈ 34 µM)	25 (≈ 68 µM)	12.5 (≈ 34 µM)	3.12 (≈ 8.5 µM)	CC(=O)N1N=C(c2ccc(Cl)c(Cl)c2)CC1c1ccccc1Cl (stereo not given)
12.5 (≈ 35.6 µM)	12.5 (≈ 35.6 µM)	12.5 (≈ 35.6 µM)	12.5 (≈ 35.6 µM)	1.56 (≈ 4.45 µM)	1.56 (≈ 4.45 µM)	CC(=O)N1N=C(c2ccc(Cl)c(Cl)c2)CC1c1ccc(F)cc1 (stereo not given)
12.5 (≈ 33.7 µM)	12.6 (≈ 33.9 µM)	25 (≈ 67.3 µM)	3.12 (≈ 8.42 µM)	50 (≈ 135 µM)	25 (≈ 67.3 µM)	CC(=O)N1N=C(c2ccc(C)c(C)c2)CC1c1ccc(Br)cc1 (stereo not given)
25 (≈ 72 µM)	> 50	> 50	25 (≈ 72 µM)	12.5 (≈ 36 µM)	6.25 (≈ 18 µM)	CC(=O)N1N=C(c2ccc(Cl)c(Cl)c2)CC1c1ccc(C)cc1 (stereo not given)
> 50	> 50	25 (≈ 83.7 µM)	12.5 (≈ 41.8 µM)	25 (≈ 83.7 µM)	12.5 (≈ 41.8 µM)	CC(=O)N1N=C(c2ccc(Cl)cc2)CC1c1ccccc1 (stereo not given)

The remaining lines, values behind:

SMILES	MIC [1] [µg/mL]	MIC [2] [µg/mL]	MIC [3] [µg/mL]	MIC [4] [µg/mL]	MIC [5] [µg/mL]	MIC [6] [µg/mL]
CC1(C)S[C@@H]2[C@H](NC(=O)Cc3ccccc3)C(=O)N2[C@H]1C(=O)O [PENICILLIN G]	6.25 (≈ 18.7 µM)	6.25 (≈ 18.7 µM)	3.12 (≈ 9.35 µM)	3.12 (≈ 9.35 µM)	1.56 (≈ 4.67 µM)	1.56 (≈ 4.67 µM)
COc1cc(OC)cc(C2CC(c3ccc(Br)cc3)=NN2C(C)=O)c1 (stereo not given)	3.12 (≈ 7.75 µM)	6.25 (≈ 15.5 µM)	50 (≈ 124 µM)	12.5 (≈ 31 µM)	25 (≈ 62 µM)	50 (≈ 124 µM)
CC(=O)N1N=C(c2ccc(Br)cc2)CC1c1ccc(Cl)cc1 (stereo not given)	3.12 (≈ 8.27 µM)	3.12 (≈ 8.27 µM)	25 (≈ 66.2 µM)	12.5 (≈ 33.1 µM)	6.25 (≈ 16.5 µM)	25 (≈ 66.2 µM)
CC(=O)N1N=C(c2ccc(C)c(C)c2)CC1c1ccc(C)cc1 (stereo not given)	3.12 (≈ 10.2 µM)	3.12 (≈ 10.2 µM)	> 50	> 50	12.5 (≈ 40.8 µM)	12.5 (≈ 40.8 µM)
CC(=O)N1N=C(c2ccc(Br)cc2)CC1c1ccc(Br)cc1 (stereo not given)	6.25 (≈ 14.8 µM)	3.12 (≈ 7.4 µM)	25 (≈ 59.2 µM)	25 (≈ 59.2 µM)	25 (≈ 59.2 µM)	12.5 (≈ 29.6 µM)
CC(=O)N1N=C(c2ccccc2F)CC1c1ccc(Br)cc1 (stereo not given)	12.5 (≈ 34.6 µM)	25 (≈ 69.2 µM)	25 (≈ 69.2 µM)	12.5 (≈ 34.6 µM)	25 (≈ 69.2 µM)	25 (≈ 69.2 µM)
CC(=O)N1N=C(c2ccc(Cl)cc2)CC1c1ccc(C)cc1 (stereo not given)	12.5 (≈ 40 µM)	12.5 (≈ 40 µM)	12.5 (≈ 40 µM)	12.5 (≈ 40 µM)	25 (≈ 79.9 µM)	6.25 (≈ 20 µM)
CC(=O)N1N=C(c2ccccc2)CC1c1ccccc1 (stereo not given)	12.5 (≈ 47.3 µM)	25 (≈ 94.6 µM)	25 (≈ 94.6 µM)	12.5 (≈ 47.3 µM)	12.5 (≈ 47.3 µM)	25 (≈ 94.6 µM)
CC(=O)N1N=C(c2ccc(Cl)cc2)CC1c1ccc(F)cc1 (stereo not given)	12.5 (≈ 39.5 µM)	12.5 (≈ 39.5 µM)	25 (≈ 78.9 µM)	25 (≈ 78.9 µM)	1.56 (≈ 4.93 µM)	12.5 (≈ 39.5 µM)
COc1cc(OC)cc(C2CC(c3ccc(Cl)cc3)=NN2C(C)=O)c1 (stereo not given)	25 (≈ 69.7 µM)	6.25 (≈ 17.4 µM)	12.5 (≈ 34.8 µM)	> 50	50 (≈ 139 µM)	6.25 (≈ 17.4 µM)
CC(=O)N1N=C(c2ccc(Br)cc2)CC1c1ccc(C)cc1 (stereo not given)	1.56 (≈ 4.37 µM)	6.25 (≈ 17.5 µM)	25 (≈ 70 µM)	6.25 (≈ 17.5 µM)	50 (≈ 140 µM)	25 (≈ 70 µM)
COc1ccc(C2CC(c3ccccc3F)=NN2C(C)=O)cc1 (stereo not given)	25 (≈ 80 µM)	25 (≈ 80 µM)	12.5 (≈ 40 µM)	25 (≈ 80 µM)	12.5 (≈ 40 µM)	6.25 (≈ 20 µM)
COc1cc(OC)cc(C2CC(c3ccccc3F)=NN2C(C)=O)c1 (stereo not given)	12.5 (≈ 36.5 µM)	25 (≈ 73 µM)	12.5 (≈ 36.5 µM)	> 50	12.5 (≈ 36.5 µM)	6.25 (≈ 18.3 µM)
COc1ccc(C2CC(c3ccc(C)c(C)c3)=NN2C(C)=O)cc1 (stereo not given)	3.12 (≈ 9.69 µM)	3.12 (≈ 9.69 µM)	25 (≈ 77.5 µM)	12.5 (≈ 38.8 µM)	12.5 (≈ 38.8 µM)	12.5 (≈ 38.8 µM)
COc1ccc(C2CC(c3ccccc3)=NN2C(C)=O)cc1 (stereo not given)	12.5 (≈ 42.5 µM)	12.5 (≈ 42.5 µM)	> 50	> 50	50 (≈ 170 µM)	> 50
CC(=O)N1N=C(c2ccccc2F)CC1c1ccc(F)cc1 (stereo not given)	12.5 (≈ 41.6 µM)	> 50	50 (≈ 166 µM)	> 50	50 (≈ 166 µM)	25 (≈ 83.2 µM)
CC(=O)N1N=C(c2ccccc2F)CC1c1ccc(C)cc1 (stereo not given)	> 50	> 50	25 (≈ 84.4 µM)	12.5 (≈ 42.2 µM)	25 (≈ 84.4 µM)	25 (≈ 84.4 µM)
